Patent publication US5849865A, “Peptides for altering bone resorption, angiogenesis and restenosis” (La Jolla Cancer Research Foundation, priority 1995, dated 1998)
Entries after “also recorded” stand apart in the source; their conditions may differ. Where a SMILES comes first, the peptide text is derived from it. Bridges are numbered along the chain shown (N, C = ends). [ ]: non-standard residue; d: D form. Tic = O=C(O)[C@@H]1Cc2ccccc2CN1; Pen = CC(C)(S)[C@H](N)C(=O)O; Mpa = O=C(O)CCS

Assays:
[1] = Choi et al. 1994; cited from earlier work
[2] = parathyroid hormone-induced hypercalcemia in mice; assay type: in vivo, Swiss-Webster mice; conditions: parathyroidectomized mice, 0.2 mg PTH/kg i.v., peptide infused 4 hr
Excerpt: Parathyroid hormone (PTH) activates osteoclasts, which are involved in bone resorption. Associated with the increased osteoclast activity is an increase in serum calcium. The PTH-induced hypercalcemia assay measures the level of serum calcium, which is an indication of bone resorption in a subject (Fischer et al., Endocrinology 132:1411-1413 (1993), which is incorporated herein by reference).
Swiss-Webster mice, which had been parathyroidectomized two weeks prior to beginning the assay, were obtained from Taconic Lab Animals and Services (Germantown N.Y.). Femoral vein catheters (PE-50 fused with PE10 polyethylene tubing; Becton Dickinson; Parsippany, N.J.) were installed in the mice, flushed and locked with heparinized saline (1:10), sutured to adjacent muscle and internalized within the inguinal space of the incision before closing the incision with wound clips. […]
The experiment was initiated by feeding the mice a calcium-deficient diet overnight, then injecting the mice the following morning with a bolus of 0.2 mg PTH/kg (hPTH 1-34; Bachem; Torrance Calif.), intravenously. […] Various doses of a peptide or vehicle were infused into an animal for 4 hr, then ionized serum calcium again was measured. […] Serum calcium measurements were expressed as the difference between the value 30 min before the PTH pulse and 4 hr after peptide infusion was started. […]

αv β3 receptor = molecular target: T1, αv β3 receptor (Homo sapiens, UniProt P05106+P06756); assay type: binding; conditions: comparison of IC50 values of αv β3 ELISA / JY cells with αv β5 and α5 β1 ELISAs
T1 construct: The αv β3 receptor was purified from octyl-glucopyranoside-extracted human placenta; from tissue
Protocol: Peptide binding to purified αv β3 receptor was determined by using a competitive ELISA, in which αv β3 receptor was immobilized and the binding of solubilized VN, in the presence of various concentrations of peptide analogue, was detected using a monoclonal mouse IgG anti-VN antibody and a labelled anti-mouse IgG conjugate.
96 well microtiter plates were coated overnight at RT with 100 μl/well of αv β3 receptor (0.5 μg/ml in 1×TBS, 4 mM octylglucoside, 1 mM CaCl2). The wells were blocked with 200 μl/well of 1% BSA in 1×TBS, 1 mM CaCl2 for at least 30 min. The plates were washed 2× with 1×TBS, 1 mM CaCl2. 50 μl peptide in 1×TBS, 1 mM CaCl2, 0.05% "TWEEN 20" (polyoxyethylenesorbitan monolaurate) was added in 10-fold serial dilutions. 50 μl of Vn in the same buffer then was added to each well.
The plates were incubated for 3 hr at RT, then washed 3× with 1×TBS, 0.05% "TWEEN 20". 100 μl of 8E6 (Telios) diluted to 1:6000 in 1×TBS, 0.05% "TWEEN 20" was added to the wells and the plates were incubated for 1 hr at RT. Plates were washed 3× with 1×TBS, 0.05% "TWEEN 20". Affinity purified goat anti-mouse IgG conjugated to horseradish peroxidase (100 μl/well; BioRad; Hercules Calif.) was added to each well and incubated for 1 hr at RT. Plates were washed 3× with 1×TBS, 0.05% "TWEEN 20". 100 μl/well of substrate mixture (10 mg O-phenylenediamine in 25 ml 0.1M citrate-phosphate buffer, pH 5.0, 6 μl 30% H2 O2) was added to the plates and allowed to develop. The development process was stopped by adding 50 μl to 4N H2 SO4 to each well. The plates were read at 490 nm and the data analyzed by four parameter fit.

[3] = series of assays of Examples II and III for potency and selectivity
Excerpt: Peptides of the RGDNTic (SEQ ID NO: 56) pharmacophore group are characterized, in general, as having increased potency, whereas the peptides of the pharmacophore RGDDV (SEQ ID NO: 1) group generally have higher receptor selectivity. […] As used herein, the term "potency" or "potent" means that a peptide of the invention is active at a relatively low concentration in the assays described in Examples II and III. A potent peptide of the invention can be identified, for example, using the assays described in Examples II and III.
The present invention also provides a series of in vitro and in vivo assays useful for screening a panel of peptides in order to identify peptides that can reduce or inhibit bone resorption or that can alter integrin binding such as αv β3 integrin receptor-mediated binding. Such peptides can include, for example, peptides within the pharmacophore groups exemplified herein or peptides within other pharmacophore groups. The series of assays disclosed herein is particularly useful for determining the selectivity and potency of a peptide for reducing or inhibiting bone resorption. The selectivity of a peptide for an integrin receptor involved in osteoclast binding to bone can be determined, for example, using the integrin receptor assays and cell attachment and detachment assays described herein. Use of cell-based assays in conjunction with receptor-based assays is informative because the receptor ELISAs provide useful information regarding the binding characteristics of a particular peptide toward a particular integrin and because the cell-based assays confirm that those characteristics are relevant to the αv β3 receptor or to bone resorption.

osteoclasts = conditions: Sato et al. 1990; EP 437,367; cited from earlier work
[4] = Fisher et al. 1993; cited from earlier work
α5 β1 (FnR) = molecular target: T2, α5 β1 (FnR) (Homo sapiens, UniProt P05556+P08648); assay: α5 β1 ELISA (competitive); assay type: binding; conditions: comparison of receptor ELISAs
T2 construct: Fibronectin receptor (FnR) was purified from 100 mM octyl-glucopyranoside-extracted human placenta; from tissue
Protocol: Peptide binding to purified human α5 β1 (FnR) also as determined using a competitive ELISA. In these assays, […] was immobilized to the wells and the binding of solubilized FnR in the presence of various concentrations of a peptide analogue was determined using a mouse monoclonal antibody to human β1 (clone P4C10; Gibco) and specific binding was visualized using a second antibody.
Microtiter wells were coated at RT by adding 100 μl of 2 μg/ml human Fn in TBS and incubating the plates overnight at 4° C. Following incubation, the plates were washed 3× with TBS/"TWEEN 20". RGD peptides were diluted in TBS containing 20 mM OG and 2 mM MnCl2 and 50 μl was added to wells at 10-fold serial dilutions. FnR was diluted in the same buffer and 50 μl was added to each well.
The plates were incubated for 3 hr at RT and washed with 300 μl TBS/"TWEEN 20". Bound receptor was incubated with 100 μl of the monoclonal anti-β1 antibody for 2 hr, then washed 3× with TBS/"TWEEN 20". […] The amount of bound second antibody was determined as described above.
The IC50 values for various RGD peptides were calculated by determining the concentration of a peptide that inhibited binding of Vn to αv β5 or αv β3 or of Fn to α5 β1 by 50%. The results of these assays are shown in FIG. 2 (columns designated "Receptor Assays").

Compound | receptor selectivity for αv β3 as compared to αv β5 and α5 β1 (αv β3 receptor) | selectivity toward α5 β1 versus αv β5 (α5 β1 (FnR)) | other results
G(Pen)GRGDSPCA | – | – | neointimal hyperplasia [1]: can inhibit neointimal hyperplasia
CC(C)[C@@H]1NC(=O)[C@H](CC(=O)O)NC(=O)[C@H](CC(=O)O)NC(=O)CNC(=O)[C@H](CCCNC(=N)N)NC(=O)CCSSC[C@@H](C(N)=O)NC1=O [compound 191] ([Mpa]RGDDVC-NH2; disulfide 1-7) | – | – | PTH-induced rise in serum ionized calcium [2]: decreased the PTH-induced rise in serum ionized calcium in a dose responsive manner
CC(C)[C@@H]1NC(=O)[C@H](CC(=O)O)NC(=O)[C@H](CC(=O)O)NC(=O)CNC(=O)[C@H](CCCNC(=N)N)NC(=O)[C@H](C)NC(=O)[C@H](CCCNC(=N)N)NC(=O)[C@@H](NC(=O)CN)C(C)(C)SSC[C@@H](C(=O)N[C@@H](C)C(=O)O)NC1=O [compound 138] (H-G[Pen]RARGDDVCA-OH; disulfide 2-10) | particularly receptor selective | – | –
CC(C)[C@@H]1NC(=O)[C@H](CC(=O)O)NC(=O)[C@H](CC(=O)O)NC(=O)CNC(=O)[C@H](CCCNC(=N)N)NC(=O)CNC(=O)C[C@@H](C(N)=O)NC1=O [peptide 368] (GRGDDVD-NH2; lactam N-7) | receptor selective for αv β3; also recorded: selective peptide; also recorded: particularly receptor selective | – | both potent and selective ([3]; summary of assays): both potent and selective
echistatin | – | – | bone resorption in vitro (osteoclasts): inhibits bone resorption in vitro; bone resorption in vivo [4]: inhibits bone resorption
CC(=O)N[C@H]1CSSC[C@@H](C(N)=O)NC(=O)[C@@H]2Cc3ccccc3CN2C(=O)[C@H](CO)NC(=O)[C@H](CC(=O)O)NC(=O)CNC(=O)[C@H](CCCNC(=N)N)NC1=O [compound 812, Ac-CRGDS(Tic)C-NH2] (Ac-CRGDS[Tic]C-NH2; disulfide 1-7) | – | – | activity of minimal-element peptides (FIG. 2) [3]: demonstrate activity; potency (active at a relatively low concentration) ([3]; summary of assays): particularly potent
C[C@@H]1NC(=O)[C@H](C)NC(=O)[C@@H](NC(=O)CN)C(C)(C)SSC[C@@H](C(N)=O)NC(=O)[C@H]([C@@H](C)O)NC(=O)[C@H](CC(=O)O)NC(=O)[C@H](CC(=O)O)NC(=O)CNC(=O)[C@H](CCCNC(=N)N)NC1=O [compound 186] (H-G[Pen]AARGDDTC-NH2; disulfide 2-10) | particularly receptor selective | – | –
C[C@@H]1NC(=O)[C@H](CCCNC(=N)N)NC(=O)CNC(=O)CC[C@@H](C(N)=O)NC(=O)[C@@H]2CCCN2C(=O)[C@H](CC(N)=O)NC(=O)[C@H](CC(=O)O)NC(=O)CNC(=O)[C@H](CCCNC(=N)N)NC1=O [compound 390] (GRARGDNPE-NH2; lactam N-9) | – | more selective toward α5 β1 than toward αv β5 | –
C[C@H](NC(=O)[C@@H]1CSSC(C)(C)[C@H](NC(=O)CN)C(=O)N[C@@H](C)C(=O)N[C@@H](C)C(=O)N[C@@H](CCCNC(=N)N)C(=O)NCC(=O)N[C@@H](CC(=O)O)C(=O)N[C@@H](CC(N)=O)C(=O)N2CCC[C@H]2C(=O)N1)C(=O)O [compound 310] (H-G[Pen]AARGDNPCA-OH; disulfide 2-10) | – | more selective toward α5 β1 than toward αv β5 | –
CC(=O)N[C@H]1CSSC(C)(C)[C@@H](C(N)=O)NC(=O)[C@@H]2CCCN2C(=O)[C@H](CC(N)=O)NC(=O)[C@H](CC(=O)O)NC(=O)CNC(=O)[C@H](CCCNC(=N)N)NC1=O [compound 228] (Ac-CRGDNP[Pen]-NH2; disulfide 1-7) | particularly receptor selective | – | –
CC(=O)N[C@@H]1C(=O)N[C@@H](Cc2ccccc2)C(=O)N[C@@H](C)C(=O)N[C@@H](CCCNC(=N)N)C(=O)NCC(=O)N[C@@H](CC(=O)O)C(=O)N[C@@H](CC(N)=O)C(=O)N2CCC[C@H]2C(=O)N[C@H](C(N)=O)CSSC1(C)C [peptide 214] (Ac-[Pen]FARGDNPC-NH2; disulfide 1-9) | – | – | potency (active at a relatively low concentration) ([3]; summary of assays): particularly potent
C[C@H](NC(=O)[C@@H]1CSSC(C)(C)[C@H](NC(=O)CN)C(=O)N[C@@H](CCCNC(=N)N)C(=O)N[C@@H](C)C(=O)N[C@@H](CCCNC(=N)N)C(=O)NCC(=O)N[C@@H](CC(=O)O)C(=O)N[C@@H](CC(N)=O)C(=O)N2CCC[C@H]2C(=O)N1)C(=O)O [compound 100] (H-G[Pen]RARGDNPCA-OH; disulfide 2-10) | – | more selective toward α5 β1 than toward αv β5 | –
N=C(N)NCCC[C@@H]1NC(=O)CC[C@@H](C(N)=O)NC(=O)[C@@H]2CCCN2C(=O)[C@H](CO)NC(=O)[C@H](CC(=O)O)NC(=O)CNC1=O [compound 825] (RGDSPE-NH2; lactam N-6) | – | more selective toward α5 β1 than toward αv β5 | –
